Laboratory results from ChEMBL document CHEMBL1153811, “Unusual cellular uptake of cytotoxic 4-hydroxymethyl-3-aminoacridine” (Eur J Med Chem, 2009).

Tests used:
HT-29 [1] = assay: Cell cycle arrest in human HT-29 cells assessed as accumulation at sub-G1 phase at 0.05 uM after 24 hrs by flow cytometry; type: functional
HT-29 [2] = assay: Cell cycle arrest in human HT-29 cells assessed as accumulation at sub-G1 phase at 0.5 uM after 24 hrs by flow cytometry; type: functional
HT-29 [3] = assay: Cell cycle arrest in human HT-29 cells assessed as accumulation at sub-G1 phase at 1 uM after 48 hrs by flow cytometry; type: functional
A549 = assay: Antiproliferative activity against human A549 cells after 3 days by MTT assay; type: functional, cell-based; settings: A549, 72 h
HeLa = assay: Antiproliferative activity against human HeLa cells after 3 days by MTT assay; type: functional, cell-based; settings: 72 h
HT-29 [4] = assay: Cell cycle arrest in human HT-29 cells assessed as accumulation at sub-G1 phase at 0.05 uM after 48 hrs by flow cytometry; type: functional
HT-29 [5] = assay: Cell cycle arrest in human HT-29 cells assessed as accumulation at sub-G1 phase at 1 uM after 24 hrs by flow cytometry; type: functional
HT-29 [6] = assay: Cell cycle arrest in human HT-29 cells assessed as accumulation at sub-G1 phase at 0.1 uM after 48 hrs by flow cytometry; type: functional
HT-29 [7] = assay: Cell cycle arrest in human HT-29 cells assessed as accumulation at sub-G1 phase at 2.5 uM after 24 hrs by flow cytometry; type: functional
HT-29 [8] = assay: Cell cycle arrest in human HT-29 cells assessed as accumulation at sub-G1 phase at 2.5 uM after 48 hrs by flow cytometry; type: functional
HT-29 [9] = assay: Cell cycle arrest in human HT-29 cells assessed as accumulation at sub-G1 phase at 0.5 uM after 48 hrs by flow cytometry; type: functional
HT-29 [10] = assay: Cell cycle arrest in human HT-29 cells assessed as accumulation at sub-G1 phase at 0.25 uM after 48 hrs by flow cytometry; type: functional
HT-29 [11] = assay: Cell cycle arrest in human HT-29 cells assessed as accumulation at sub-G1 phase at 0.1 uM after 24 hrs by flow cytometry; type: functional
HT-29 [12] = assay: Cell cycle arrest in human HT-29 cells assessed as accumulation at sub-G1 phase at 0.25 uM after 24 hrs by flow cytometry; type: functional
HT-29 [13] = assay: Antiproliferative activity against human HT-29 cells after 3 days by MTT assay; type: functional, cell-based; settings: HT-29, 72 h

| IC50 (A549) | IC50 (HeLa) | IC50 (HT-29 [13]) | Compound | Activity (HT-29 [1]) | Activity (HT-29 [2]) | Activity (HT-29 [3]) | Activity (HT-29 [4]) | Activity (HT-29 [5]) | Activity (HT-29 [6]) | Activity (HT-29 [7]) | Activity (HT-29 [8]) | Activity (HT-29 [9]) | Activity (HT-29 [10]) | Activity (HT-29 [11]) | Activity (HT-29 [12]) |
| --- | --- | --- | --- | --- | --- | --- | --- | --- | --- | --- | --- | --- | --- | --- | --- |
| 0.06 µM | 0.07 µM | 0.034 µM | Nc1ccc2cc3ccccc3nc2c1CO | 3.2% | 9.7% | 31.7% | 0.7% | 5.2% | 4.7% | 13.7% | 23.4% | 26.3% | 18.7% | 0.1% | 0.7% |
| 0.13 µM | 0.07 µM | 0.07 µM | Nc1ccc2cc3ccc(I)cc3nc2c1CO | 3.9% | 1.7% | 14.8% | 2.14% | 8.7% | 22.6% | 8.9% | 12% | 19.3% | 23.7% | 1.4% | 6.3% |
